# From the supplement of paper PMC10307832
# Assays:
# Test in all cases: relative viability (nuclei count vs DMSO), 5 days (fraction); higher = more cells survive
# [1] = compound: C1CNCCC1C2=CC(=NN2)C3=CC=NC=C3 + CC1(C)CCC(c2ccc(Cl)cc2)=C(CN2CCN(c3ccc(C(=O)NS(=O)(=O)c4ccc(N[C@H](CCN5CCOCC5)CSc5ccccc5)c(S(=O)(=O)C(F)(F)F)c4)cc3)CC2)C1 [Navitoclax] (partner 0.5 µM)
# Summary of the method: (§1)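 Cells from lung cancer lines were seeded into 1536-well plates and, one day later, dosed by pin tool. Treatments were either a single drug or a fixed dose of an anchor drug with five library-drug doses (not always all listed) in √10 steps. After 5 days, nuclei were stained in a one-step fixation (final 0.05% Triton X-100, 1% formaldehyde, 1 ug/ml Hoechst) and counted on 4× images, and relative viability is the treated-to-vehicle nuclei ratio, as the median of duplicate plates.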
# [2] = compound: C[C@@H](N)c1ccc(C(=O)Nc2ccnc3[nH]ccc23)cc1 + COc1cccc2cc(-c3nc([C@H]4CC[C@H](C(=O)O)CC4)n4ncnc(N)c34)[nH]c12 [OSI-027] (partner 0.5 µM)
# Summary of the method: as §1
# Tanzisertib + Trametinib = compound: O[C@H]1CC[C@H](Nc2ncc3nc(Nc4c(F)cc(F)cc4F)n([C@H]4CCOC4)c3n2)CC1 [Tanzisertib] + CC(=O)Nc1cccc(-n2c(=O)n(C3CC3)c(=O)c3c(Nc4ccc(I)cc4F)n(C)c(=O)c(C)c32)c1 [Trametinib] (partner 0.02 µM)
# Summary of the method: as §1
# Tanzisertib + Linsitinib = compound: O[C@H]1CC[C@H](Nc2ncc3nc(Nc4c(F)cc(F)cc4F)n([C@H]4CCOC4)c3n2)CC1 [Tanzisertib] + C[C@]1(O)C[C@@H](c2nc(-c3ccc4ccc(-c5ccccc5)nc4c3)c3c(N)nccn32)C1 [Linsitinib] (partner 1 µM)
# Summary of the method: as §1
Cell Line,relative viability ([1]; first compound 0.08 µM),relative viability ([1]; first compound 0.8 µM),relative viability ([1]; first compound 2.53 µM),relative viability ([1]; first compound 8 µM),relative viability ([2]; first compound 0.04 µM),relative viability ([2]; first compound 0.1265 µM),relative viability ([2]; first compound 0.4 µM),relative viability ([2]; first compound 1.265 µM),relative viability ([2]; first compound 4 µM),relative viability (Tanzisertib + Trametinib; first compound 0.08 µM),relative viability (Tanzisertib + Trametinib; first compound 0.253 µM),relative viability (Tanzisertib + Trametinib; first compound 0.8 µM),relative viability (Tanzisertib + Trametinib; first compound 2.53 µM),relative viability (Tanzisertib + Trametinib; first compound 8 µM),relative viability (Tanzisertib + Linsitinib; first compound 0.08 µM),relative viability (Tanzisertib + Linsitinib; first compound 0.253 µM),relative viability (Tanzisertib + Linsitinib; first compound 0.8 µM),relative viability (Tanzisertib + Linsitinib; first compound 2.53 µM),relative viability (Tanzisertib + Linsitinib; first compound 8 µM)
NCI-H1792,0.611,0.679,0.639,0.589,0.796,0.77,0.736,0.869,0.65,0.501,0.455,0.35,0.413,0.244,0.552,0.562,0.623,0.497,0.478
NCI-H596,1.01,1.07,1.02,0.958,0.643,0.592,0.747,–,0.709,0.789,0.796,0.89,0.73,0.776,1.19,0.956,1.11,1.12,1.02
RERF-LC-KJ,1.05,1.01,0.76,0.94,0.555,0.628,0.591,0.672,0.6,0.863,0.919,0.959,0.782,0.834,0.942,0.834,0.971,0.862,0.877
NCI-H322M,1.22,1.19,1.24,1.18,0.656,0.586,0.63,–,0.706,0.464,0.482,0.491,0.448,0.544,1,0.891,0.795,0.88,1.02
COR-L 105,0.751,0.706,0.774,0.788,0.719,0.943,0.852,0.517,0.563,0.43,0.493,0.485,0.448,0.37,1.13,0.78,0.895,1.12,0.77
NCI-H1993,0.9,0.866,1.01,0.908,0.529,0.556,0.574,0.577,0.603,0.638,0.428,0.55,0.499,0.522,0.759,0.681,0.754,0.768,0.677
NCI-H1437,1.06,1.11,1.1,1.12,0.947,0.838,0.853,1,0.919,0.588,0.481,0.512,0.558,0.43,1.14,0.981,1.11,1.13,0.971
NCI-H838,1.13,1.11,1.25,1.14,0.395,0.45,0.413,0.339,0.253,0.705,0.566,0.506,0.529,0.49,1.02,0.997,1,1.01,0.919
EBC-1,0.463,0.517,0.5,0.392,–,–,–,–,–,–,–,–,–,–,1.29,0.876,0.846,0.899,0.783
